Several values for one entry are separate records, joined by “and”; a condition that tells them apart may be missing. Equal values may be shown once.
Key:
SSTR2 in CA20948 cells = details: cited from earlier work
[1] = Ex vivo biodistribution in healthy BALB/c mice; parameters: species or system mouse
Description: Quantification of activity was performed with an automated gamma counter equipped with a 3-in NaI(Tl) detector coupled to a multichannel analyzer (2480 Wizard^2, Perkin Elmer, Zaventem, Belgium). The results were corrected for background signal, physical decay during counting and detector dead time.
All animal experiments were performed in compliance with the Ethical Committee Animal Studies of Medanex Clinic (EC MxCl 2020-163 and EC MxCl 2021-173), the Belgian laboratory animal legislation and the European Communities Council Directive of 22 September 2010 (2010/63/EU). Male BALB/c and NMRI nude mice were purchased from Janvier (Bio Services, Uden, The Netherlands) and housed in ventilated cages under standard laboratory conditions (12 h light/dark cycle) at the animal facility of SCK CEN. All animals had access to food and water ad libitum.
Additionally, similar biodistribution studies were performed with free (unlabeled) [^153Sm]SmCl3 to identify the organs with ^153Sm accumulation in case of release from the complex. […] The mice were sacrificed by an overdose pentobarbital (200 µL of 60 mg/mL) 1, 4, 24 and 72 h post-injection (p.i.) (n = 3–4 per time point). Blood was collected via cardiac puncture. Organs of interest were collected in tared tubes and weighed. The activity in the different organs was measured in the gamma counter. For the calculation of the total activity in the blood, bone and muscle, the masses were assumed to be, respectively, 7, 12 and 40% of the total body mass. Data were expressed as a percentage of injected activity (%IA) and standardized uptake value (SUV). %IA was calculated as (counts per min (cpm) in organ)/(IA converted to cpm) × 100. SUV was calculated as (activity in cpm in organ/weight of organ in g)/(IA/total body weight in g).

[2] = 1 h p.i., healthy male BALB/c mice, ~2-3 MBq i.v., mean ± SD, n = 3-4
[3] = 4 h p.i., healthy male BALB/c mice, ~2-3 MBq i.v., mean ± SD, n = 3-4
[4] = 24 h p.i., healthy male BALB/c mice, ~2-3 MBq i.v., mean ± SD, n = 3-4
[5] = 72 h p.i., healthy male BALB/c mice, ~2-3 MBq i.v., mean ± SD, n = 3-4
[6] = mouse, in vivo, iv, listed as [153Sm]SmCl3

## O=C([O-])CN(CCN(CC(=O)[O-])CC(=O)[O-])CCN(CC(=O)[O-])CC(=O)[O-].[177Lu+3] [[^177Lu]Lu-DTPA]
SSTR2 in CA20948 cells
  affinity towards SSTR2: complete lack of affinity

## [153Sm+3].[Cl-].[Cl-].[Cl-] [[^153Sm]SmCl3, reference compound]
[1]; [2]
  Blood SUV: 2.0 ± 0.5
  Heart SUV: 0.7 ± 0.2
  Lungs %IA: 0.9 ± 0.2 %IA
  Lungs SUV: 1.0 ± 0.2
  Pancreas SUV: 0.2 ± 0.1
  Stomach %IA: 0.5 ± 0.2 %IA
[1]; [3]
  Bone %IA: 20.1 ± 6.7 %IA
  Heart %IA: 0.2 ± 0.0 %IA
  Intestines %IA: 1.7 ± 0.2 %IA
  Stomach %IA: 0.2 ± 0.0 %IA
[1]; [4]
  Blood %IA: 0.2 ± 0.0 %IA
  Heart SUV: 0.2 ± 0.0
  Intestines %IA: 1.0 ± 0.2 %IA
  Lungs SUV: 0.2 ± 0.0
  Stomach %IA: 0.2 ± 0.2 %IA
[1]; [5]
  Lungs SUV: 0.2 ± 0.0
  Muscle %IA: 0.9 ± 0.2 %IA
  Stomach %IA: 0.2 ± 0.1 %IA
[1]; mouse, in vivo, iv
  Bone SUV: 3.1 ± 1.3
  Brain SUV: 0.0 ± 0.0
  Liver SUV: 7.7 ± 1.8
  Lungs SUV: 0.4 ± 0.0
[1]; [6]
  Bone %IA: 12.1 ± 0.3 %IA and 17.6 ± 3.7 %IA and 21.9 ± 8.9 %IA
  Bone SUV: 1.7 ± 0.0 and 2.9 ± 1.0 and 2.5 ± 0.5
  Excreted %IA: 26.0 ± 8.0 %IA and 21.4 ± 3.9 %IA and 24.2 ± 4.2 %IA and 34.8 ± 11.6 %IA
  Intestines %IA: 2.4 ± 0.5 %IA and 1.5 ± 0.5 %IA
  Liver %IA: 35.9 ± 6.4 %IA and 54.3 ± 5.3 %IA and 53.9 ± 4.2 %IA and 42.9 ± 9.2 %IA
  Liver SUV: 6.9 ± 0.5 and 11.2 ± 1.3 and 10.5 ± 0.8

Source: paper PMC9785812 (Pharmaceutics, 2022)
